Results from patent US9018391B2, “Inhibitors of beta-secretase” (Boehringer Ingelheim International GmbH, priority 2012, dated 2015).

Columns and labels:
[1] = target: truncated human beta-secretase, BACE1 (amino acids 1-454) (Homo sapiens (Human), UniProt P56817); assay: BACE1 Assay (Assay 1), fluorescence quench assay; type: biochemical; conditions: pH 4.4
Method: The substrate was dissolved at 1 mg/ml in DMSO.
The assay was performed in the presence of OptiMEM™ (supernatant collected over 24 h and cleared from cellular debris by centrifugation) containing the ectodomain of BACE1, 25 μl water containing the desired 2-fold concentration of test compound and 2% DMSO, 1 μM substrate peptide, 20 mM NaOAc, pH 4.4, and 0.04% Triton-X100 in a total assay volume of 50 μl in a 384 well plate. In general, 25 μl of compound dilution were added to the plate followed by the addition of 10 μl of BACE1 containing OptiMEM™ diluted 1:10 in water with 0.2% Triton X-100. The reaction was started with the addition of 15 μl substrate in NaOAc buffer. The reaction was incubated at rt (dark) in an Envision® multilabel reader (Perkin Elmer) and the cleavage of the substrate was recorded as kinetic for […] at ex: 485 nm, em: 538 nm. Blank wells containing no enzyme were included on each plate.
The intensity of fluorescence was regressed against time in order to derive velocities of reaction in all 384 wells. These velocities were used for calculating percent control using an uninhibited control containing 1% DMSO as 100% and a blank control performed in the absence of enzyme as 0%. IC50 values were calculated by fitting percent control vs. test compound concentration using Assay Explorer®.

[2] = target: hERG channel (Homo sapiens (Human), UniProt Q12809); assay: hERG-Channel Assay (Assay 2), whole-cell patch clamp in HEK293 cells stably transfected with hERG cDNA; type: cell-based; conditions: for inhibition at 10 µM: human, HEK293 cells stably transfected with hERG cDNA, pH 7.4, 35° C.
hERG channel, sequence (Q12809 whole entry): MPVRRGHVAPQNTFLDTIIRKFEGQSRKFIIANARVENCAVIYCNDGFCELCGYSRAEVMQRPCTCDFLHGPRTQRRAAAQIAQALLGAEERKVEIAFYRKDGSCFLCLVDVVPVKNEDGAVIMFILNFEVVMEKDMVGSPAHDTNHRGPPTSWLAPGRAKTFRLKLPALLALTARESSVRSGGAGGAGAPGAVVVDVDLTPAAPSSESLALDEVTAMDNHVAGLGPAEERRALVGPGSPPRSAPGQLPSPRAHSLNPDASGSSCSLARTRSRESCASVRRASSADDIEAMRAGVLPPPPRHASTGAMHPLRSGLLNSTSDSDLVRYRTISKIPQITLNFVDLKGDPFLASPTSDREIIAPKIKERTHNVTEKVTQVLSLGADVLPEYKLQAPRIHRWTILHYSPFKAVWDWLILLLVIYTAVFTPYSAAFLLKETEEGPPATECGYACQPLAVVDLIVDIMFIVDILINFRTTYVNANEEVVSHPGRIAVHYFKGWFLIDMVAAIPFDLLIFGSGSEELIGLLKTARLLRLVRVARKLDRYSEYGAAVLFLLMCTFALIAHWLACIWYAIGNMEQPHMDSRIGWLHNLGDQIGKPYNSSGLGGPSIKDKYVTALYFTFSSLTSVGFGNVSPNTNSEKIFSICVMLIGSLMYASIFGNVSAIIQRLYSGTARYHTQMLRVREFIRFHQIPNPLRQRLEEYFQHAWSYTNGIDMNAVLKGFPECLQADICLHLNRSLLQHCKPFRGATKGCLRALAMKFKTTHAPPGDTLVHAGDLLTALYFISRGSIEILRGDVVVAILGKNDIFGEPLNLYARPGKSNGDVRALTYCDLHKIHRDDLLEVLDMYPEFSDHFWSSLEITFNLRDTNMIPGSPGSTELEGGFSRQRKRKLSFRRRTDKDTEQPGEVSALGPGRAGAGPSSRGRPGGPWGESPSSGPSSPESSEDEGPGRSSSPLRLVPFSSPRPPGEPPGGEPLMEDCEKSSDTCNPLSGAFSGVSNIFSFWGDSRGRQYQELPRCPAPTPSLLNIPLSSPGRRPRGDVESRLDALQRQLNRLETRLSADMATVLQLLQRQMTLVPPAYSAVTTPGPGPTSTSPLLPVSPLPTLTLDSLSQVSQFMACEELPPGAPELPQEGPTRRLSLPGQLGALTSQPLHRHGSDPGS
Description: hERG-Channel Assay (Assay 2)
Cells: HEK (human embryonic kidney) 293 cells were stably transfected with hERG cDNA.
Cells were superfused with a bath solution containing (mM): NaCl (137), KCl (4.0), MgCl2 (1.0), CaCl2 (1.8), Glucose (10), HEPES (10), pH 7.4 with NaOH. Patch pipettes were made from borosilicate glass tubing using a horizontal puller and filled with pipette solution containing (mM): K-aspartate (130), MgCl2 (5.0), EGTA (5.0), K2ATP (4.0), HEPES (10.0), pH 7.2 with KOH. Resistance of the microelectrodes was in the range between 2 and 5 MΩ.
Stimulation and Recording:
Membrane currents were recorded using an EPC-10 patch clamp amplifier and PatchMaster software. hERG-mediated membrane currents were recorded at 35° C., using the whole-cell configuration of the patch-clamp technique. Transfected HEK293 cells were clamped at a holding potential of −60 mV and hERG-mediated inactivating tail currents were elicited using a pulse pattern with fixed amplitudes (activation/inactivation: 40 mV for 2000 ms; recovery: −120 mV for 2 ms; ramp to 40 mV in 2 ms; inactivating tail current: 40 mV for 50 ms) repeated at 15 s intervals. During each inter-pulse interval, 4 pulses scaled down by a factor of 0.2 were recorded for a P/n leak subtraction procedure. Rs compensation was employed up to a level that safely allowed recording devoid of ringing.
Compound Preparation and Application:
The different concentrations of the test compounds were applied sequentially on each of the different cells investigated. A steady state level of baseline current was measured for at least 6 sweeps prior to the application of the first test compound concentration.
The test compound was dissolved in DMSO to yield a master stock solution which was diluted further in DMSO to stock solutions needed for the lower concentrations. Final dilutions in extracellular buffer were prepared freshly from these stocks by a 1:1000 dilution step each before starting the experiments.
Peak current amplitudes were measured 3 ms after the ramp to +40 mV. For baseline and each concentration, the peak currents of the three last sweeps before application of the next concentration were averaged. Residual currents (I/I0) were calculated for each cell as the fraction of actual average peak current and average baseline peak current.

[3] = In Vitro Phospholipidosis Assay (Assay 3), Nile red staining; type: cell-based, human; conditions: human, first effect concentration, U937 cells, read-out: Phospholipidosis FEC IC50 μM (assay 3)
Method: In Vitro Phospholipidosis Assay (Assay 3)
The phospholipidogenic potential of test compounds was assayed using the human hematopoetic U937 cell line. The test principle was to analyze the phospholipid content by staining the cells with the fluorescent dye Nile red.
U937 cells were seeded into cell culture plates at 0.5×10^6 cells/mL in RPMI medium containing 10% FBS, 1% DMSO, and 0.005% gentamicin. The cells were cultivated with or without different concentrations of test compound for 48 h under standard culture conditions.
For harvesting, the cells were centrifuged at 130×g for 4 min and washed once with PBS. Then, 2×0.5 mL cell suspensions were prepared for non-fixed cell measurement (0.5 mL for propidium iodide (PI) viability measurement and 0.5 mL for Nile red measurement).
The remaining cells were fixed with 3.7% formaldehyde for 30 min. After a further centrifugation step, cells were resuspended with 1.3 mL Nile red working solution (1 μg/mL) and incubated for 5 min at rt. The cell suspension was washed twice with 3 mL PBS and centrifuged with 130×g for 4 min. The supernatant was discarded and the cells were resuspended with 0.5 mL PBS and kept for flow cytometry measurement.
For Nile red staining of the 0.5 mL non-fixed cell samples, 50 μL of a ready to use Nile red solution (10 μg/mL) were added per sample. Samples were kept on ice for 5 min. Thereafter, they were washed once with 4 mL PBS (4° C., 250×g for 8 min) and finally resuspended in 400 μL PBS and kept for flow cytometry measurement.
For the viability measurement, 12.5 μL of the ready to use PI solution (10 μg/mL) were added to the 0.5 mL non-fixed cell suspension. After 15 min of incubation on ice, the samples were measured by flow cytometry using a Coulter Epics XL/MCL flow cytometer.
The viability of the cells of each sample was determined by flow cytometry measurement of the PI content at channel 2 (568-590 nm). Cut-off gates for the fluorescence-dependent differentiation between live and dead cells were defined based on the analysis of cell culture medium control samples.
Only samples with a cell viability of >=90% relative to control samples were analyzed for phospholipidosis. Each Nile red sample (non-fixed and fixed samples) was measured by flow cytometry at channel 1 (504-541 nm) and channel 4 (660-680 nm).
For each channel, relative Nile red fluorescence intensity of a test sample was calculated compared to control samples and expressed as a percentage of control fluorescence intensity. The assessment of the phospholipidogenic potential and the first effective concentration (FEC) of a test compound was done manually based on the fluorescence intensities at both wavelengths for the fixed cells, as well as for the non-fixed cells.

[4] = tested on: Human Hepatocytes; assay: In Vitro Hepatocyte Stability Assay (Assay 4); type: in vitro ADME; conditions: predicted blood clearance as percent of hepatic blood flow
Method: In Vitro Hepatocyte Stability Assay (Assay 4)
The metabolic degradation of test compounds was assayed in a hepatocyte suspension. Cryopreserved hepatocytes were incubated in an appropriate buffer system (e.g., Dulbecco's modified eagle medium plus 3.5 μg glucagon/500 mL, 2.5 mg insulin/500 mL and 3.75 mg/500 mL hydrocortison) containing 5% species serum. Following a 30 min preincubation in an incubator (37° C., 10% CO2), 5 μl of test compound solution (80 μM; from 2 mM in DMSO stock solution diluted 1:25 with medium) were added into 395 μl hepatocyte suspension (cell density in the range 0.25−5×10^6 cells/mL, typically 1×10^6 cells/mL; final concentration of test compound final DMSO concentration […]).
The cells were incubated for six h (incubator, orbital shaker) and samples (25 μl) were taken at 0, 0.5, 1, 2, 4 and 6 h. Samples were transferred into acetonitrile and pelleted by centrifugation (5 min). The supernatant was transferred to a new 96 DeepWell™ plate, evaporated under nitrogen and resuspended. Decline of compound was analyzed by HPLC-MS/MS. CLint (in vitro hepatic intrinsic clearance) was calculated as follows: CLint=Dose/AUC=(C0/CD)/(AUD+Clast/k)×1000/60
C0: initial concentration in the incubation [μM];
CD: cell density of vital cells [cells/mL];
AUD: area under the data [μM×h];
Clast: concentration of last data point [μM];
k: slope of the regression line for compound decline [h^−1].
The calculated in vitro hepatic intrinsic clearance was scaled up to the intrinsic in vivo hepatic clearance (Clint in vivo) and used to predict hepatic in vivo blood clearance (CL) by the use of a liver model (well-stirred model), as follows: CLint,in vivo[mL/min/kg]=(CLint[μL/min/10^6 cells]×hepatocellularity[10^6 cells/g liver]×liver factor [g/kg body weight])/1000 CL[mL/min/kg]=CLint,to vivo×hepatic blood flow[ml/min/kg]/(CLint,in vivo[ml/min/kg]+hepatic blood flow[mL/min/kg])
The in vivo blood clearance was transformed into percent of the hepatic blood flow (% Qh): % Qh=CL[mL/min/kg]/hepatic blood flow[mL/min/kg])×100
Hepatocellularity, human: 1.2×10^7 cells/g liver;
Liver factor, human: 25.7 g/kg body weight;
Hepatic blood flow, human: 21 mL/(min×kg).

truncated human beta-secretase, BACE1 (amino acids 1-454), sequence (P56817 22-454): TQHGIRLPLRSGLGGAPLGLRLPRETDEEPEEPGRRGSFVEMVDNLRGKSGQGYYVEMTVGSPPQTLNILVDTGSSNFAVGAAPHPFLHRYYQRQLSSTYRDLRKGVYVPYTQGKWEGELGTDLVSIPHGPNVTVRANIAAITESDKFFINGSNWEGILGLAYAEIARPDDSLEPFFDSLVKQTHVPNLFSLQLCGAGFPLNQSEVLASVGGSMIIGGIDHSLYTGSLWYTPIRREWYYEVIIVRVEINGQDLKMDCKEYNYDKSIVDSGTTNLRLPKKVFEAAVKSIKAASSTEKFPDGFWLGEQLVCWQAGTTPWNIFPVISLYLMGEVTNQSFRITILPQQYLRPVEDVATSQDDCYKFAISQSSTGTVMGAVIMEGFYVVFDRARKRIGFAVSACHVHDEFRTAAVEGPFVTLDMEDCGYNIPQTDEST

| Structure (SMILES) | IC50 [1] | In vitro Human Hepatocytes % Qh @ 1 μM (assay 4) [4] | inhibition at 10 µM [2] | IC50 at 48 h [3] | % Inhibition hERG @ 10 μM (assay 2) ([2]; 35° C.) |
| --- | --- | --- | --- | --- | --- |
| C[C@@H]1C[C@@]2(Cc3ccc(C#N)cc3[C@]23N=C(N)N(CC2CC(F)(F)C2)C3=O)C[C@H](C)[C@H]1O.O=C(O)C(F)(F)F [Example 14] | 4.5 nM | 5.2 % Qh | 27% | 200 µM |  |
| CC[C@@H]1C[C@@]2(Cc3ccc(C#N)cc3[C@]23N=C(N)N(C[C@H]2COCCO2)C3=O)C[C@H](C)[C@H]1O [Example 8] | 1.9 nM | 19.1 % Qh | 6% | 800 µM |  |
| C[C@H]1C[C@@]2(CC[C@@H]1O)Cc1ccc(-c3cccnc3)cc1[C@]21N=C(N)N(Cc2ncccn2)C1=O [Example 12] | 6.8 nM | 0 % Qh | 15% | 100 µM |  |
| C[C@@H]1C[C@@]2(Cc3ccc(NC(=O)C(C)(C)F)cc3[C@]23N=C(N)N(CC(C)(C)F)C3=O)C[C@H](C)[C@H]1O [Example 6] | 6.3 nM | 11 % Qh | 1.8% | 400 µM |  |
| C[C@@H]1C[C@@]2(Cc3ccc(C#N)cc3[C@]23N=C(N)N(CCc2ccncc2)C3=O)C[C@H](C)[C@H]1O.O=C(O)C(F)(F)F [Example 15] | 9.7 nM | 22.9 % Qh | 15.2% | 800 µM |  |
| COC1CCC2(CC1)Cc1ccc(Cl)cc1[C@]21N=C(N)N(C)C1=O (stereo partly drawn) [reference compound] |  |  | 58% | 100 µM |  |
| C[C@@H]1C[C@@]2(Cc3ccc(-c4cncnc4)cc3[C@]23N=C(N)N(CC(C)(C)F)C3=O)C[C@H](C)[C@H]1O [Example 5] | 2.6 nM | 6.1 % Qh | 12% | 400 µM |  |
| Cc1cc(CN2C(=O)[C@]3(N=C2N)c2cc(C#N)ccc2C[C@@]32C[C@@H](C)[C@H](O)[C@@H](C)C2)ccn1.O=C(O)C(F)(F)F [Example 16] | 9.4 nM | 19 % Qh | 1.4% | 200 µM |  |

Now from value to compound, other results behind:

| IC50 [1] | In vitro Human Hepatocytes % Qh @ 1 μM (assay 4) [4] | Structure (SMILES) | inhibition at 10 µM [2] | IC50 at 48 h [3] | % Inhibition hERG @ 10 μM (assay 2) ([2]; 35° C.) |
| --- | --- | --- | --- | --- | --- |
| 10.6 nM | 0 % Qh | C[C@@H]1C[C@@]2(Cc3ccc(C#N)cc3[C@]23N=C(N)N(CC2CC2)C3=O)C[C@H](C)[C@H]1O [Example 10] | 33% | > 100 µM |  |
| 8.7 nM | 4.2 % Qh | C[C@H]1C[C@@]2(CC[C@@H]1O)Cc1ccc(C#N)cc1[C@]21N=C(N)N(CC2CC(F)(F)C2)C1=O [Example 13] | 12% | 200 µM |  |
| 5.1 nM | 8.5 % Qh | COC1CCC2(CC1)Cc1ccc(C#CC3CC3)cc1C21N=C(N)N(Cc2ncco2)C1=O (stereo not drawn) [drawing 13, reference compound] | 60% |  |  |
| 8.3 nM |  | CO[C@H]1CC[C@]2(CC1)Cc1ccc(OCC3CC3)cc1C21N=C(N)N(CCC(F)(F)F)C1=O (stereo partly drawn) [reference compound] | 87% |  |  |
|  | 14 % Qh | COC1CCC2(CC1)Cc1ccc(C#N)cc1[C@]21N=C(N)N(C)C1=O (stereo partly drawn) [drawing 10, reference compound] | 90% | 400 µM |  |
| 7.3 nM | 43 % Qh | COCCCOc1ccc2c(c1)C1(N=C(N)N(CC(F)F)C1=O)[C@]1(CC[C@H](OC)CC1)C2 (stereo partly drawn) [reference compound] | 36% | 50 µM |  |
| 5.1 nM | 8.5 % Qh | COC1CCC2(CC1)Cc1ccc(C#CC3CC3)cc1C21N=C(N)N(Cc2ncco2)C1=O (stereo not drawn) [drawing 17, reference compound] |  |  | 60% |
| 3.5 nM | 88 % Qh | CO[C@H]1CC[C@]2(CC1)Cc1ccc(CCC(C)C)cc1C21N=C(N)N(CC(F)(F)F)C1=O (stereo partly drawn) [reference compound] | 89% |  |  |
| 256 nM |  | COCC(C)N1C(=O)C2(N=C1N)c1cc(C#N)ccc1CC21CCC(OC)CC1 (stereo not drawn) [reference compound] |  |  |  |
